From PMC12699179, “Investigating Metal and Fluorophore Controlled Intracellular Localization in Noble Metal Thiosemicarbazone Complexes” (Chemistry (Weinheim an Der Bergstrasse, Germany), 2025) come the findings set out here.

Series [1] can be described thus: Stability in cell culture medium by UV/Vis spectroscopy. It counts as physicochemical. The settings on record: 50 µM, DMEM with 10% fetal bovine serum, over 72 hours. How it is done: Likewise, the stability of these complexes was shown via UV/Vis spectrophotometry in cell culture medium over 72 hours.^[ [22] ^] The stability of the newly synthesized compounds was investigated similarly. […] However, the absorption profiles remained distinctly different from those of the corresponding free ligands, which was taken as evidence that the Pd(II) metal center remained chelated by the ligand.
Stability in Cell Culture Medium and Water
5 mM stocks of the respective compounds in DMSO were diluted to produce a final concentration of 50 µM in water or Dulbecco's Modified Eagle's Medium (DMEM) containing 10% fetal bovine serum and 1% penicillin + streptomycin , respectively. The stability of the compounds was monitored via UV/Vis spectroscopy by recording the corresponding absorption profiles of the 50 µM solutions and comparing any changes to the profiles over […]

In another series the test system is HeLa cells. As to the kind of experiment: Cellular uptake assay, metal content by ICP-MS. Type of series: cell-based. As to conditions: 10 µM, 24 h, whole cell accumulation by ICP-MS. How it is done: Subsequently, we investigated the uptake of the conjugates 5 and 7 (at 10 µM) by incubating HeLa cells with the respective compounds for 24 hours and analyzing the final metal concentration inside the cells using inductively coupled plasma mass spectrometry (ICP‐MS). […]
HeLa cells were harvested and seeded in 100 mm × 21 mm cell culture dishes at a density of 200,000 cells per dish in 10 mL of growth medium. After 96 hours of incubation, when the cells had reached 90% confluency, the growth medium was aspirated and replaced with fresh medium containing 10 μM of a compound belonging to sets 5 or 7, respectively. The cells were incubated with the compound for 24 h, after which the medium was aspirated, and the cells were washed three times with 10 mL of PBS buffer. Subsequently, the washed cells were […]
trypsinized for 3 min, and the trypsin reaction was halted by the addition of 3 mL growth media.
Cells were suspended in the mixture, and the total cell count was determined using a Bio -Rad TC20 cell counter. The cell suspension was centrifuged at 5000 rpm for 5 minutes, and the supernatant was removed. The cells were then digested using 2 mL of aqua regia (3:1 v/v, 37% HCl and 70% HNO3, trace metal basis quality (Aldrich, purity ≥99.999%)) and sonicated at 60 °C for 16 h. The dissolved samples were then diluted with 13 mL of HPLC-grade water to reach a final volume of 15 mL. The total metal content of the samples was then determined via ICP-MS analysis (Thermo Scientific iCAP RQ, ASX-560) in Ar plasma in KED mode with He as collision gas. Reference to standards was made, and calibration curves were developed using commercial calibration standards (TraceCert®, Merck).
Fluorophore Compound Metal content
Table S3: Whole cell accumulation of compound sets 5 and 7 analyzed using ICP-MS and expressed in terms of total metal content. […]

With `CC1=CC(C)=[N+]2C1=Cc1ccc(CCC(=O)NCCc3cccc(C4=[N+]5N=C(N(C)C)[S][Pt-2]5([Cl])[n+]5ccccc54)n3)n1[B-]2(F)F` (centres unmarked) [Compound 7b], the “stability in cell culture medium” value in series [1] is “remained stable”. The compound also yielded a Metal content with HeLa cells of 0.013 ± 0.002 pg/cell.
